The text below walks through data of US9289412B2, “Role of limonoid compounds as neuroprotective agents” (The Johns Hopkins University, priority 2006, dated 2016).

Each structure is given as a SMILES string.

The test system of experiment [1] is mixed hippocampal cell cultures (6-OHDA neurotoxicity). As to the kind of experiment: 6-OHDA neurotoxicity, MTT viability, mixed hippocampal cultures. Type of experiment: cell-based, rat. Particulars: 6-OHDA 100 μM. The procedure:
(§1) FIG. 8 is a set of bar graphs showing the results of an MTT viability assay of mixed hippocampal cell cultures in which the effect of (A) NMDA (100 μM) or (B) 6-OHDA (100 μM) is tested alone or in the presence of a range of concentrations of Limonin (0.1-10 μM).
(§2) We also tested the ability of Limonin to protect against N-methyl-D-Aspartic Acid (NMDA) excitotoxicity, and 6-Hydroxydopamine (6-0HDA), a dopaminergic neurotoxin.

Experiment [2] concerns mixed hippocampal cell cultures (NMDA excitotoxicity). As to the kind of experiment: NMDA excitotoxicity, MTT viability, mixed hippocampal cultures. In kind it is cell-based, rat. Particulars: NMDA 100 μM. On the procedure:
as §1, §2

The test system of experiment [3] is human fetal neuronal cultures. As to the kind of experiment: 3-NP toxicity, MTT viability, human fetal neuron cultures. In kind it is cell-based. To be noted: 3-NP 3 mM; Limonin 0.1-10 μM. The procedure: (§3) FIG. 9 is a set of bar graphs showing the results of an MTT viability assay of human fetal neuron cultures in which the effect of (A) 3-NP (3 mM) or (B) 6-OHDA (100 μM) is tested alone or in the presence of a range of concentrations of Limonin (0.1-10 μM).
(§4) Finally, we sought to determine if the compounds tested in rat neuronal cultures would also be effective on cultured human fetal neurons.

Experiment [4] concerns hippocampal cultures (HIV-1 Tat toxicity). As to the kind of experiment: HIV-1 Tat toxicity assay, MTT viability, mixed hippocampal cultures. Type of experiment: cell-based, rat. Particulars: Tat 500 nM; range of concentrations up to 10 μM. From the text: We sought to evaluate the protective efficacy of a number of modified terpenoid compounds against the against many different neurotoxins, ranging from the chemotoxic 6-OHDA, NMDA, 3-nitropropionic acid (3-NP), and viral proteins such as Tat and gp120. Thus, we established an in vitro neuroprotection assay using rat mixed hippocampal cultures, in which we evaluated the protective efficacy of neuroprotective compounds disclosed herein. The oxidative stressor 3-NP was used to elicit toxicity in the rat hippocampal cultures to mimic the oxidative damage, reactive oxygen species production and ensuing neurodegeneration resulting from HIV infection. Another measure of neurotoxicity which results from HIV infection was evaluated by exposure of the hippocampal cultures to HIV-1 Tat (Li et al (2005), Neurotox Res, 8(1-2): 119-134).
Rat mixed hippocamal neuronal cultures were generated from freshly dissected rat hippocampi (embryonic day 18) in neurobasal media containing 5% fetal bovine serum and 2% B27 supplement. The cells were plated into 96 well plates at a density of 4×10^5 cells/mL and routinely used on days 11-14 following culturing. Cell viability was assessed with MTT [3-(4,5-dimethylthiazol-2-yl)-2,5-diphenyltetrazolium bromide] assay. The MTT assay is based on the ability of a mitochondrial dehydrogenase enzyme from viable cells to cleave the tetrazolium rings of the pale yellow MTT and form dark blue formazan crystals. See Mosmann (1983), J Immunol Methods, 65(1-2):55-63. These crystals are largely impermeable to cell membranes, and thus accumulate within healthy cells. The resultant formazan precipitates are solubilized with DMSO and read on a multiwell scanning spectrophotometer (ELISA reader). The number of surviving cells is directly proportional to the level of the formazan product created.
Cultures were preincubated with GPI 1046 or Resveratrol for one hour prior to an 18 hour exposure to 3 mM 3-NP. […] The same neuroprotective compounds were evaluated for efficacy against HIV-1 Tat protein toxicity using the same 1 hour preincubation protocol.

Experiment [5] relates to human fetal neuronal cultures. As to the kind of experiment: 6-OHDA toxicity, MTT viability, human fetal neuron cultures. In kind it is cell-based. To be noted: 6-OHDA 100 μM; Limonin 0.1-10 μM. On the procedure:
as §3, §4

`CC1(C)O[C@H]2CC(=O)OC[C@]23[C@H]2CC[C@@]4(C)[C@H](c5ccoc5)OC(=O)[C@H]5O[C@]54[C@]2(C)C(=O)C[C@@H]13` [Limonin]: the “protection against 6-OHDA at highest dose” value in experiment [1] (Limonin 10 μM) was “complete protection”. For the same compound, the “dose dependence of block of 6-OHDA neurotoxicity (FIG. 8B)” value in experiment [1] (Limonin 0.1-10 μM) was “dose-dependently blocked the neurotoxicity”. Also, in experiment [2] (Limonin 10 μM), the “protection against NMDA at highest dose” value is given as “complete protection”. The “dose dependence of block of NMDA neurotoxicity (FIG. 8A)” value in experiment [2] (Limonin 0.1-10 μM) is listed as “dose-dependently blocked the neurotoxicity”. The “protection of human fetal neuronal cultures against 3-NP (FIG. 9A)” value in experiment [3] is “dose-dependently protected”. In addition, the “dose dependence of protection from HIV-1 Tat toxicity (FIG. 7)” value in experiment [4] was “dose dependently protected”. Also, the “protection of human fetal neuronal cultures against 6-OHDA (FIG. 9B)” value in experiment [5] was “dose-dependently protected”.
